Measurements published in patent publication US7812017B2, “4-substituted indole and indoline compounds” (Biovitrum AB (publ.), priority 2006, dated 2010).
pKi: −log10 of the molar value. Where a name gives a salt, the structure may show the parent alone.

Experiments:
human 5-HT6 receptor [1] = target: T1, human 5-HT6 receptor (Homo sapiens, UniProt P50406); experiment: biochemical
human 5-HT6 receptor [2] = target: T1, human 5-HT6 receptor; experiment: 5-HT6 receptor binding assay ([3H]-LSD, SPA, membranes of transfected HEK293 cells); conditions: over three experiments

T1 sequence (P50406 whole entry): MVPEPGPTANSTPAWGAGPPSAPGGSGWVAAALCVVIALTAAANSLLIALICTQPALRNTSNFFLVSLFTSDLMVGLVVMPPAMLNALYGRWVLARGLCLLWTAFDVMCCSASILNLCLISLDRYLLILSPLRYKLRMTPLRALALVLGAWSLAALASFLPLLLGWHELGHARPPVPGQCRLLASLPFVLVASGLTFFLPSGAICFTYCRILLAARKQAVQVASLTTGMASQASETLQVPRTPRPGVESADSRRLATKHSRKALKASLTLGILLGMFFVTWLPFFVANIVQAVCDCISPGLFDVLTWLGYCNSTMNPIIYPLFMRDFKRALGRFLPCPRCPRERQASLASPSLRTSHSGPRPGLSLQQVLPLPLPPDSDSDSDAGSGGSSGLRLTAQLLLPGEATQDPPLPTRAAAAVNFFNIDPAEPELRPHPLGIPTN

Hill coefficient (human 5-HT6 receptor [2]) | Structure (SMILES) | pKi (human 5-HT6 receptor [1])
– | O=S(=O)(c1ccccc1)n1ccc2c(CN3CCC3)cccc21 [Example 87, 4-Azetidin-1-ylmethyl)-1-(phenylsulfonyl)-1H-indole trifluoroacetate] | 9.05
0.94 (SD 0.09) | NCCc1c[nH]c2ccc(O)cc12 [Example 5-HT, 5-hydroxytryptamine] | –
– | CN(C)Cc1cccc2c1ccn2S(=O)(=O)c1ccccc1 [Example 47, N,N-Dimethyl-1-[1-(phenylsulfonyl)-1H-indol-4-yl]methanamine trifluoroacetate] | 8.48
– | O=S(=O)(c1ccccc1)n1ccc2c(CN3CCNCC3)cccc21 [Example 1, 1-(Phenylsulfonyl)-4-(piperazin-1-ylmethyl)-1H-indole hydrochloride] | 8.74
